Where “and” joins values, the source holds several entries; their conditions need not be identical. Equal entries are not always repeated. Structures can show the parent of a compound that is named as a salt.
| Structure (SMILES) | melting point |
| --- | --- |
| CC12CCC(CC1=O)C2(C)C (stereo not given) [camphor] | 174 °C |
| CC1(C)[C@@H]2CC[C@@]1(C)C(=O)C2 [camphor] | 180 °C |
| CC12CCC(C(=O)C1=O)C2(C)C (stereo not given) [camphorquinone] | 200 °C |
| NC(=O)N1c2ccccc2C=Cc2ccccc21 [carbamazepine] | 192 °C |
| c1ccc2c(c1)[nH]c1ccccc12 [carbazole] | 247 °C and 243 °C |
| NC(=O)CN1Cc2ccccc2OC1=O [caroxazone] | 203 °C |
| Oc1ccccc1O [catechol] [listing 1 of 2 here] | 105 °C |
| Oc1ccccc1O [catechol] [listing 2 of 2 here] | 106 °C |
| CN(C)CCC(O)(c1ccccc1)c1ccccc1Cl (stereo not given) [chlophedianol] | 120 °C |
| O=C(O)CCl [chloroacetic acid] | 62 °C |
| O=C(Cl)CCl [chloroacetyl chloride] | -22 °C |
| ClC1CCCC1 [chlorocyclopentane] | -94 °C |
| CCCNC(=O)NS(=O)(=O)c1ccc(Cl)cc1 [chlorpropamide] | 128 °C |
| CC(C)CCCC(C)C1CCC2C3CC=C4CC(O)CCC4(C)C3CCC12C (stereo not given) [cholest-5-en-3-ol] | 148 °C |
| CCCCCCCCC(=O)O[C@H]1CC[C@@]2(C)C(=CC[C@H]3[C@@H]4CC[C@H]([C@H](C)CCCC(C)C)[C@@]4(C)CC[C@@H]32)C1 [cholesteryl nonanoate] | 77 °C |
| CCCCCCCCCCCCCCCCCC(=O)O[C@H]1CC[C@@]2(C)C(=CC[C@H]3[C@@H]4CC[C@H]([C@H](C)CCCC(C)C)[C@@]4(C)CC[C@@H]32)C1 [cholesteryl stearate] | 80 °C |
| O=Cc1coc2ccccc2c1=O [chromone-3-carboxaldehyde] | 152 °C |
| CNC(=NC#N)NCCSCc1nc[nH]c1C [cimetidine] | 141 °C |
| OC/C=C/c1ccccc1 [cinnamyl alcohol] | 34 °C |
| Cl/C=C\Cl [cis-1,2-dichloroethylene] | -80 °C |
| C/C=C\CCCCC [cis-2-octene] | -100 °C |
| C/C=C\CC [cis-2-pentene] | -151 °C |

| Structure (SMILES) | melting point |
| --- | --- |
| CC/C=C\CC [cis-3-hexene] | -138 °C |
| CCC/C=C\CCC [cis-4-octene] | -119 °C |
| C1=C\CCCCCC/1 [cis-cyclooctene] | -16 °C |
| C/C(=C/C(=O)NN)C(=O)NN [citraconic hydrazide] | 286 °C |
| O=C(O)CC(O)(CC(=O)O)C(=O)O [citric acid anhydrous] | 153 °C |
| O=C(O)CC(O)(CC(=O)O)C(=O)O [citric acid, anhydrous] | 154 °C |
| COc1ccc2c(C(=O)c3ccc(Cl)cc3)c(C)n(CC(=O)O)c2c1 [clometacin] | 242 °C |
| Clc1cccc(Cl)c1N=C1NCCN1 [clonidine] | 130 °C |
| Clc2cccc(Cl)c2N=C1/NCCN1 [clonidine] | 130 °C |
| CC(C)(C)NCC(O)COc1cc(Cl)ccc1Cl (stereo not given) [cloranolol] | 82 °C |
| c1cc2ccc3ccc4ccc5ccc6ccc1c1c2c3c4c5c61 [coronene] | 438 °C and 440 °C |
| O=C(CO)[C@@]3(O)CC[C@H]2[C@@H]4CC\C1=C\C(=O)CC[C@]1(C)[C@H]4C(=O)C[C@@]23C [cortisone] | 222 °C and 226 °C (2×) |
| C[C@]12CCC(=O)C=C1CC[C@@H]1[C@@H]2C(=O)C[C@@]2(C)[C@H]1CC[C@]2(O)C(=O)CO [cortisone] | 222 °C |
| C/C=C/C=O [crotonaldehyde] | -76 °C |
| CC(C)c1ccccc1 [cumene] | -96 °C |
| N#CCC(N)=O [cyanoacetamide] | 120 °C |
| Clc1nc(Cl)nc(Cl)n1 [cyanuric chloride] | 147 °C |
| C1CCC1 [cyclobutane] | -90.7 °C |
| C1CCCCCCCCCCC1 [cyclododecane] | 61 °C |
| OC1CCCCCCCCCCC1 [cyclododecanol] | 78 °C |
| C1=CCCCCCCCCCC1 [cyclododecene_(trans)] | 0 °C |
| O=C(Nc1ccccc1)OC1C=CC=CCC1OC(=O)Nc1ccccc1 (stereo not given) [cyclohepta-3,5-diene-1,2-diyl bis(phenylcarbamate)] | 135 °C |

| Structure (SMILES) | melting point |
| --- | --- |
| O=C(Nc1ccccc1)OC1CCCCCC1OC(=O)Nc1ccccc1 (stereo not given) [cycloheptane-1,2-diyl bis(phenylcarbamate)] | 174 °C |
| O=CC1CCCCC1 [cyclohexanecarbaldehyde] | 34.5 °C |
| O=CC1CCCCC1 [cyclohexanecarboxaldehyde] | 35 °C |
| OC1CCCCC1 [cyclohexanol] [listing 1 of 2 here] | 25.9 °C |
| OC1CCCCC1 [cyclohexanol] [listing 2 of 2 here] | 24 °C |
| ON=C1CCCCC1 [cyclohexanone oxime] | 89 °C |
| C1=CCCCC1 [cyclohexene] | -104 °C |
| O=C=NC1CCCCC1 [cyclohexyl isocyanate] | -80 °C |
| NC1CCCCC1 [cyclohexylamine] [listing 1 of 2 here] | -18 °C |
| NC1CCCCC1 [cyclohexylamine] [listing 2 of 2 here] | -17 °C and -17.7 °C |
| C1CCCCCCC1 [cyclooctane] | 15 °C |
| OC1CCCCCCC1 [cyclooctanol] | 15 °C |
| O=C1CCCCCCC1 [cyclooctanone] | 41 °C |
| C1CCCCCCCCCCCCCC1 [cyclopentadecane] | 62 °C |
| O=C(O)C1CCCC1 [cyclopentanecarboxylic acid] | -7 °C |
| C1CC1 [cyclopropane] | -127 °C |
| Cc1ccccc1N1CCN(CCc2nnc3n2CCCC3)CC1 [dapiprazole] | 158 °C |
| CCCCCCCCCC=O [decanal] | -5 °C |
| CCCCCCCCCCc1ccccc1 [decylbenzene] | -14 °C |
| C[C@H](CCC(=O)O)[C@H]1CC[C@H]2[C@@H]3CC[C@@H]4C[C@H](O)CC[C@]4(C)[C@H]3C[C@H](O)[C@]12C [deoxycholic acid] | 174 °C |
| CC(CN1CCOCC1)C(C(=O)N1CCCC1)(c1ccccc1)c1ccccc1 (stereo not given) [dextromoramide] | 180 °C |
| CCCCOC(=O)c1ccccc1C(=O)OCCCC [di-n-butyl phthalate] | -35 °C |

| Structure (SMILES) | melting point |
| --- | --- |
| CCCCSCCCC [di-n-butyl sulfide] | -80 °C |
| CCCCCCCCSCCCCCCCC [di-n-octyl sulfide] | 1 °C |
| CCCSCCC [di-n-propyl sulfide] | -102 °C |
| c1ccc2c(c1)sc1ccccc12 [dibenzothiophene] | 99 °C |
| BrCBr [dibromomethane] | -53 °C |
| N#CNC(=N)N [dicyandiamide] | 210 °C |
| C1CCC(C2CCCCC2)CC1 [dicyclohexyl] | 4 °C |
| O=c1[nH]cnc2c1ncn2[C@H]1CC[C@@H](CO)O1 [didanosine] | 162 °C |
| ClC5(Cl)[C@]3(Cl)C(\Cl)=C(\Cl)[C@@]5(Cl)[C@H]4[C@H]1C[C@H]([C@@H]2O[C@H]12)[C@@H]34 [dieldrin] | 175 °C |
| Cl\C1=C(/Cl)C2(Cl)C3C4CC(C3C1(Cl)C2(Cl)Cl)C5OC45 (stereo not given) [dieldrin] | 176 °C |
| CCOC(=O)c1sc2sc(C(=O)OCC)c(C)c2c1C [diethyl 3,4-dimethylthieno[2,3-b]thiophene-2,5-dicarboxylate] | 140 °C |
| CCOC(=O)OCC [diethyl carbonate] | -43 °C |
| CCOCC [diethyl ether] | -116 °C |
| CCOC(=O)C(=O)C(=O)OCC [diethyl ketomalonate] | -70 °C |
| CCOC(=O)CC(=O)OCC [diethyl malonate] | -50 °C |
| CCOP(O)OCC [diethyl phosphite] | -70 °C |
| CCOC(=O)c1ccccc1C(=O)OCC [diethyl phthalate] | -64 °C |
| CCSCC [diethyl sulfide] | -104 °C |
| CCNCC [diethylamine] | -50 °C |
| COCCOCCOC [diethylene glycol dimethyl ether] | -64 °C |
| OCCOCCO [diethylene glycol] | -10 °C |
| CC[SiH2]CC [diethylsilane] | -132 °C |

| Structure (SMILES) | melting point |
| --- | --- |
| CC/C(=C(/CC)c1ccc(O)cc1)c1ccc(O)cc1 [diethylstilbestrol] | 178 °C |
| CC(C)OC(=O)/N=N/C(=O)OC(C)C [diisopropyl azodicarboxylate] | 4 °C |
| COC(=O)c1c(C)nn(C(=O)OC)c1C [dimethyl 3,5-dimethyl-1H-pyrazole-1,4-dicarboxylate] | 90 °C |
| COC(=O)/C=CC(=O)OC [dimethyl maleate] | -19 °C |
| COC(=O)CC(=O)OC [dimethyl malonate] | -62 °C |
| COC(=O)c1ncoc1C(=O)OC [dimethyl oxazole-4,5-dicarboxylate] | 75 °C |
| COC(=O)c1ccc(C(=O)OC)nc1 [dimethyl pyridine-2,5-dicarboxylate] | 162 °C |
| COC(=O)c1cccc(C(=O)OC)n1 [dimethyl pyridine-2,6-dicarboxylate] | 121 °C |
| COC(=O)CCCCCCCCC(=O)OC [dimethyl sebacate] | 27 °C |
| COC(=O)CCC(=O)OC [dimethyl succinate] | 19 °C |
| CS(C)(=O)=O [dimethyl sulfone] | 110 °C |
| COC(=O)c1ccc(C(=O)OC)cc1 [dimethyl terephthalate] | 142 °C |
| COC(=O)c1c(Cl)c(Cl)c(C(=O)OC)c(Cl)c1Cl [dimethyl tetrachloroterephthalate] | 157 °C |
| COC(=O)OC [dimethyl_carbonate] | 3 °C |
| CSC [dimethyl_sulfide] | -98 °C |
| CN(C)C=O [dimethylformamide] | -61 °C |
| OCCN1CCCCC1C(c1ccccc1)c1ccccc1 (stereo not given) [diphemethoxidine] | 106 °C |
| O=C(Oc1ccccc1)c1ccccc1C(=O)Oc1ccccc1 [diphenyl phthalate] | 75 °C |
| O=C(CCC(=O)Oc1ccccc1)Oc1ccccc1 [diphenyl succinate] | 88 °C |
| O=C(Cl)N(c1ccccc1)c1ccccc1 [diphenylcarbamyl chloride] | 84 °C |
| c1ccc(Cc2ccccc2)cc1 [diphenylmethane] [listing 1 of 2 here] | 90.5 °C |
| c1ccc(Cc2ccccc2)cc1 [diphenylmethane] [listing 2 of 2 here] | 24 °C |

From the Bradley open melting point set (2014)
